{"source": "patent US20060128762A1", "about": "“Medicinal composition and method for treating malignant tumor and utilization thereof” (D.Western Therapeutics Institute, priority 2002, published 2006)", "key": {"[1]": {"tested_on": "Murine Monocytic Leukemia P388", "assay": "Antitumor effect on P388 murine monocytic leukemia transplanted into mouse (survival)", "assay_type": "in vivo", "design": "MST (median survival time): unit not given here", "conditions": "for MST (median survival time) / Survival number on day 50 / T/C (%): N = 6; for survival rate on day 5: administered alone", "protocol": "Monocytic leukemia cell line P388 was purchased from Japanese Foundation for Cancer Research, Cancer Chemotherapy Center. The cryopreserved tumor was transplanted intraperitoneally into DBA/2 mouse (Japan SLC, Inc.). When the abdominal bloating was observed, ascites was removed and subjected to the test.\n(§1) Compound 2 was weighed and ground down in an agate motor. It was then suspended slowly in the motor by adding 0.5% aqueous methylcellulose solution (M.C.) step by step to obtain 10 mg/ml suspension. The suspension was further diluted with M.C. to obtain a normal concentration and stored at 4° C. CDDP was dissolved and diluted with physiological saline. Immediately after preparation, the CDDP solution was subjected to test.\nMale 4-week-old DBA/2 mice (n=10, 2 mice for the present test) and male 4-week-old CDF1 mice (DBA/2×BALB/c) (n=156) were purchased from Japan SLC, Inc., and used six animals per group. Animals were kept in a chamber maintained at room temperature of 21 to 25° C. and humidity of 45-65% with a given lighting time intervals (light period: 7:00 to 19:00; dark period: 19:00 to 7:00) and allowed to access freely to feed (F-2, Funabashi Nojo) and tap water. The animals purchased were used in the test after subjecting to taming and quarantine for 1 week.\nThe cryopreserved P388 cell lines were transplanted intraperitoneally into DBA/2 mouse. When the abdominal bloating was observed, ascites containing cancer cells were removed. The ascites was diluted with phosphate-buffered physiological saline (PBS, pH7.4) until the cell concentration became 5×10^6 cells/ml. The resultant solution (0.2 ml) was transplanted intraperitoneally into CDF1 mouse (1×10^6 cells/mouse). The drug was administered to mouse (0.1 ml/10 g body weight) on and after the next day of transplantation.\nCompound 2 was administered orally and CDDP intraperitoneally. Animals of control group were untreated because of diversity of administration route and complexity of administration schedule.\nThe administration was started on the next day (day 1) of transplantation of tumor according to the protocol shown in Table 1, i.e., day 1; day 2; or day 1 and 2."}, "[2]": {"assay": "Stability of the suspension in 0.5% aqueous methylcellulose solution", "assay_type": "physicochemical", "conditions": "suspension in 0.5% aqueous methylcellulose solution (M.C.), in a cold place", "protocol": "as §1, with “test. It is assured that the suspension of Compound 2 in M.C. is homogeneous and stable for 14 days in a cold place.” for “test.”"}, "[3]": {"conditions": "Compound 2 25 mg/kg p.o on day 1"}, "[4]": {"conditions": "Compound 2 25 mg/kg p.o on day 2"}, "[5]": {"conditions": "Compound 2 50 mg/kg p.o on day 1"}, "[6]": {"conditions": "Compound 2 50 mg/kg p.o on day 2"}, "[7]": {"conditions": "Compound 2 100 mg/kg p.o on day 1"}, "[8]": {"conditions": "Compound 2 100 mg/kg p.o on day 2"}}, "data": [{"smiles": "N.N.[Cl][Pt][Cl]", "note": "[CDDP, cis-platinum (II) diamine chloride, reference compound]", "values": [{"measurement": "MST (median survival time)", "setting": "[1]; CDDP 2.5 mg/kg i.p on day 1", "result": 14.5}, {"measurement": "Survival number on day 50", "setting": "[1]; CDDP 2.5 mg/kg i.p on day 1", "result": 0}, {"measurement": "T/C (%)", "setting": "[1]; CDDP 2.5 mg/kg i.p on day 1", "result": 145, "unit": "%"}, {"measurement": "MST (median survival time)", "setting": "[1]; CDDP 2.5 mg/kg i.p on day 2", "result": 15.5}, {"measurement": "Survival number on day 50", "setting": "[1]; CDDP 2.5 mg/kg i.p on day 2", "result": 0}, {"measurement": "T/C (%)", "setting": "[1]; CDDP 2.5 mg/kg i.p on day 2", "result": 155, "unit": "%"}, {"measurement": "MST (median survival time)", "setting": "[1]; CDDP 5 mg/kg i.p on day 1", "result": 17}, {"measurement": "Survival number on day 50", "setting": "[1]; CDDP 5 mg/kg i.p on day 1", "result": 0}, {"measurement": "T/C (%)", "setting": "[1]; CDDP 5 mg/kg i.p on day 1", "result": 170, "unit": "%"}, {"measurement": "MST (median survival time)", "setting": "[1]; CDDP 5 mg/kg i.p on day 2", "result": 17}, {"measurement": "Survival number on day 50", "setting": "[1]; CDDP 5 mg/kg i.p on day 2", "result": 0}, {"measurement": "T/C (%)", "setting": "[1]; CDDP 5 mg/kg i.p on day 2", "result": 170, "unit": "%"}, {"measurement": "MST (median survival time)", "setting": "[1]; CDDP 10 mg/kg i.p on day 1", "result": 17}, {"measurement": "Survival number on day 50", "setting": "[1]; CDDP 10 mg/kg i.p on day 1", "result": 0}, {"measurement": "T/C (%)", "setting": "[1]; CDDP 10 mg/kg i.p on day 1", "result": 170, "unit": "%"}, {"measurement": "MST (median survival time)", "setting": "[1]; CDDP 10 mg/kg i.p on day 2", "result": 17}, {"measurement": "Survival number on day 50", "setting": "[1]; CDDP 10 mg/kg i.p on day 2", "result": 0}, {"measurement": "T/C (%)", "setting": "[1]; CDDP 10 mg/kg i.p on day 2", "result": 170, "unit": "%"}, {"measurement": "survival rate on day 5", "setting": "[1]", "result": "not observed"}]}, {"smiles": "COc1ccc(S(=O)(=O)N(C(C)=O)c2ccccc2/C=C/c2cc[n+]([O-])cc2)cc1", "note": "[Compound 2, (E)-4-[2-[2-[N-acetyl-N-[(p-methoxyphenyl)sulfonyl]-amino]phenyl]ethenyl]pyridine 1-oxide]", "values": [{"measurement": "MST (median survival time)", "setting": "[1]; [3]", "result": 12.5}, {"measurement": "Survival number on day 50", "setting": "[1]; [3]", "result": 0}, {"measurement": "T/C (%)", "setting": "[1]; [3]", "result": 125, "unit": "%"}, {"measurement": "MST (median survival time)", "setting": "[1]; [4]", "result": 13}, {"measurement": "Survival number on day 50", "setting": "[1]; [4]", "result": 0}, {"measurement": "T/C (%)", "setting": "[1]; [4]", "result": 130, "unit": "%"}, {"measurement": "MST (median survival time)", "setting": "[1]; [5]", "result": 13}, {"measurement": "Survival number on day 50", "setting": "[1]; [5]", "result": 0}, {"measurement": "T/C (%)", "setting": "[1]; [5]", "result": 130, "unit": "%"}, {"measurement": "MST (median survival time)", "setting": "[1]; [6]", "result": 13}, {"measurement": "Survival number on day 50", "setting": "[1]; [6]", "result": 0}, {"measurement": "T/C (%)", "setting": "[1]; [6]", "result": 130, "unit": "%"}, {"measurement": "MST (median survival time)", "setting": "[1]; [7]", "result": 16.5}, {"measurement": "Survival number on day 50", "setting": "[1]; [7]", "result": 0}, {"measurement": "T/C (%)", "setting": "[1]; [7]", "result": 165, "unit": "%"}, {"measurement": "MST (median survival time)", "setting": "[1]; [8]", "result": 15}, {"measurement": "Survival number on day 50", "setting": "[1]; [8]", "result": 0}, {"measurement": "T/C (%)", "setting": "[1]; [8]", "result": 150, "unit": "%"}, {"measurement": "survival rate on day 5", "setting": "[1]", "result": "not observed"}, {"measurement": "time for which the suspension in M.C. is homogeneous and stable", "setting": "[2]", "result": 14, "unit": "days"}]}]}
